Results on two compounds are retold here after patent publication US9763996B2, “Polymyxin derivative and uses thereof” (Northern Antibiotics Ltd., priority 2015, dated 2017).

Data set [1] relates to E. coli ATCC 25922. To be noted: ATCC 25922.
For data set [2], the system named is E. coli JMI 3328. To be noted: JMI 3328.
A short description of data set [3]: 7-day IV infusion toxicity (nephrotoxicity) study in cynomolgus monkeys. The procedure: In vivo toxicity and toxicokinetic studies were performed by using cynomolgus monkeys. The laboratory that performed the animal studies is accredited by the Association for Assessment and Accreditation of Laboratory Animal Care (AAALAC), has an Animal Welfare Assurance issued by the Office of Laboratory Animal Welfare (OLAW), is registered with the United States Department of Agriculture (USDA), and has an Institutional Animal Care and Use Committee (IACUC) responsible for compliance with applicable laws and regulations concerning the humane care and use of laboratory animals.
Naïve female cynomolgus monkeys were acclimatized to study room for 28 days during which each animal was implanted with a permanent indwelling femoral catheter to permit continuous intravenous infusions. The animals were allowed surgical recovery period of at least 2 weeks before initiating dosing.
Polymyxin B sulfate was from Sigma-Aldrich (catalogue number P0972, lot number BCBF8382V). On each day of use, appropriate quantities of NAB739, NAB815 or polymyxin B were weighed and dissolved in appropriate volumes of sterile saline to prepare a stock solution for each test article and positive control. A correction factor was used in the stock solution preparation to account for both the purity and sulfate content in each test article. Accordingly, the dose (such as 36 mg/kg/d) refers to the dose of the pure peptide as its free base form, not as its sulfate salt.
The doses were the following: polymyxin B 18 mg/kg/d (Group 1), polymyxin B 24 mg/kg/d (Group 2), NAB739 24 mg/kg/d (Group 3), NAB739 36 mg/kg/d (Group 4), NAB815 24 mg/kg/d (Group 5), NAB815 36 mg/kg/d (Group 6). Three animals were included in each study groups.
(§1) For seven days, the animals were dosed by intravenous (IV) infusion three times daily (TID) at a dose volume of 10 mL/kg for 1 hour (±10 minutes), 8±0.5 hours apart. The day of initial dose administration was designated study Day 1, with subsequent days consecutively numbered. Days prior to the initial dose administration were consecutively numbered with the final day of acclimation referenced as Day −1.
(§2) The following parameters were evaluated at designed intervals: clinical observations, body weights, clinical pathology (hematology, coagulation, serum chemistry, urinalysis including urine sediments and urine chemistry), toxicokinetics (plasma and urine) and anatomic pathology (kidney). In cases of animals sacrificed on an unscheduled basis, samples were taken on the day of the sacrifice.
On the day of necropsy, animals were sedated with ketamine, weighed, and anesthetized with an intravenous injection of a commercial pentobarbital and phenytoin solution, followed by exsanguinations.
At necropsy, gross observations and organ weights were recorded, and specific tissues were collected. Histopathology was conducted on sections of kidney stained with hematoxylin and eosin (H&E).
The figures also show Urine N-acetyl-β-D-glucosaminidase/urine creatinine ratio (U-NAG/Crea; FIG. 3) and Urine Gamma Glutamyltransferase/urine creatinine ratio (U-GGT/Crea; FIG. 4), both urine biomarkers for kidney injury, in those animals. S-Crea and U-Crea were measured by using an Olympus Analyzer (OA) and the modified Jaffe method, S-BUN by using OA and urease/L-glutamate dehydrogenase. U-NAG was measured by using OA/enzymatic, and U-GGT by using OA and glutamyl-carboxy-p-nitroanilide IFCC.
The presence of the following nephro-pathological parameters was recorded in each animal: tubular basophilia (re-generation), tubular degeneration/necrosis, infiltration (by mononuclear and/or mixed inflammatory cells), tubular dilatation, and tubular casts.

Data set [4] deals with E. coli JMI 109. To be noted: JMI 109.
The subject of data set [5] is P. aeruginosa JMI 7445. To be noted: JMI 7445.
For data set [6], the system named is A. baumannii ATCC 19606. The following applies: ATCC 19606.
Data set [7] in a line: Toxicokinetics (plasma and urine) in cynomolgus monkeys. The following applies: cynomolgus monkey, in vivo; for AUC: plasma. How it is done: as §1, §2
Plasma and urine concentrations for toxicokinetic (TK) studies were determined by using liquid chromatograph interfaced with a mass spectrometer after precipitation of proteins. A sample (100 μL) was mixed with internal standard solution in water:formic acid (99:1 v/v; […]). Then, 600 μL of 100:1 acetonitrile:formic acid was added. The plates were centrifuged at 3200 rpm for 5 minutes. Using a Tomtec Quadra96, a 450 μL aliquot was transferred to a new 96-well plate and dried under nitrogen at 40° C. Then, 200 μL of water:methanol:formic acid (85:15:1 1 v/v) was added and the plate sealed for LC-MS/MS injection. LC-MS system consisted of Waters Acquity liquid chromatograph interfaced with a Thermo Scientific TSQ Quantitative triple quadrupole MS with ionization in the positive ion mode. Each sample (20 μL) was injected onto a Waters Acquity BEH Shield RP18 column (2.1×50 mm; 1.7 μm) equilibrated at 50° C. Mobile Phase A was 85:15:1 v/v water:methanol:formic acid. Mobile Phase B was 50:50:1 v/v acetonitrile:methanol:formic acid.
Peak area ratios from the calibration standard responses were regressed using a (1/concentration^2) linear fit for polymyxin B using colistin as the internal standard. For NAB739 and NAB815, peak areas from the calibration standard responses were regressed using a (1/concentration^2) quadratic fit (without the use of an internal standard).
The regression models were chosen based upon the behavior of the analytes across the concentration range used during development.
Toxicokinetic analysis was performed by using WinNonlin Phoenix version 6.3 software (Pharsight, Cary, N.C.). For plasma TK, noncompartmental IV infusion model was used.
In the cynomolgus monkey studies described in Example 3, where the peptides were administered as a 1-hour intravenous infusion three times daily, plasma and urine levels of the peptides were determined.

Data set [8] deals with A. baumannii CMI 417. The following applies: alone; A. baumannii CMI 417 (polymyxin-nonsusceptible).
Data set [9] concerns K. pneumoniae ATCC 43816. The following applies: ATCC 43816.
Data set [10] relates to P. aeruginosa. In words: Synergy studies with rifampin. In kind it is cell-based, Pseudomonas aeruginosa. The following applies: against P. aeruginosa. The procedure:
Synergy studies were performed by using polymyxin derivatives in combination with rifampin, a model compound for such antibacterial agents that the intact outer membrane of Gram-negative bacteria acts as a permeability barrier.

The test system of data set [11] is K. pneumoniae JMI 27072. The following applies: JMI 27072.
Data set [12] deals with K. pneumoniae JMI 27068. Briefly: microbe, parasite or virus in culture. To be noted: Klebsiella pneumoniae, JMI27068.
Data set [13] deals with A. baumannii ATCC 19606. Briefly: microbe, parasite or virus in culture. The following applies: Acinetobacter baumannii, ATCC19606.
Data set [14] has as its system K. pneumoniae ATCC 43816. Briefly: microbe, parasite or virus in culture. To be noted: Klebsiella pneumoniae, ATCC43816.
Data set [15] concerns K. pneumoniae JMI 27072. Briefly: microbe, parasite or virus in culture. The following applies: Klebsiella pneumoniae, JMI27072.
The subject of data set [16] is A. baumannii JMI 48125. Briefly: microbe, parasite or virus in culture. To be noted: Acinetobacter baumannii, JMI48125.
In data set [17] the test system is A. baumannii CMI 417. In words: microbe, parasite or virus in culture. To be noted: Acinetobacter baumannii, CMI417.
Data set [18] concerns P. aeruginosa ATCC 27853. In words: MIC assay (CLSI broth microdilution; checkerboard with rifampin). To be noted: Pseudomonas aeruginosa, ATCC27853.
The test system of data set [19] is P. aeruginosa JMI 7445. Briefly: microbe, parasite or virus in culture. The following applies: Pseudomonas aeruginosa, JMI7445.
In data set [20] the test system is E. coli JMI 3328. In words: microbe, parasite or virus in culture. To be noted: Escherichia coli, JMI3328.
Data set [21] has as its system E. coli ATCC 25922. In words: microbe, parasite or virus in culture. The following applies: Escherichia coli, ATCC25922.
The test system of data set [22] is E. coli JMI 109. In words: microbe, parasite or virus in culture. To be noted: Escherichia coli, JMI109.

Converted amounts (≈) assume the structure as drawn. “Also recorded” adds a separate entry of the source. Read-outs that look alike come from different tables or passages of the source. Where a SMILES comes first, the peptide text is derived from it. Bridges are numbered along the chain shown (N, C = ends). [ ]: non-standard residue; d: D form. The star is where a group is joined. Octanoyl = CCCCCCCC(=O)*; Dab = NCC[C@H](N)C(=O)O

Regarding `CCCCCCCC(=O)N[C@H](C(=O)N[C@H](CO)C(=O)N[C@H]1CCNC(=O)[C@H]([C@@H](C)O)NC(=O)[C@H](CCN)NC(=O)[C@H](CCN)NC(=O)[C@H](CC(C)C)NC(=O)[C@@H](Cc2ccccc2)NC(=O)[C@H](CCN)NC1=O)[C@@H](C)O` [NAB739, octanoyl-Thr-DSer-[cyclo-α,γDab-αDab-DPhe-Leu-αDab-αDab-Thr]] (Octanoyl-T[dS][Dab][Dab][dF]L[Dab][Dab]T; lactam 3-C), the MIC was determined as 2 µg/mL (≈ 1.86 µM) in data set [1]; 2 µg/mL (≈ 1.86 µM) in [2]; 32 µg/mL (≈ 29.7 µM) in [4]; 4 µg/mL (≈ 3.72 µM) in data set [5]; 4 µg/mL (≈ 3.72 µM) in [6]; 128 µg/mL (≈ 119 µM) in data set [8]. Besides, the MIC in data set [9] is 4 µg/mL (≈ 3.72 µM); in [11], 2 to 4 µg/mL. Besides, the “kidney injury markers (S-BUN, S-Crea, U-NAG/Crea, U-GGT/Crea)” value in [3] (36 mg/kg/d IV TID 7 days) was “all the four markers were significantly elevated; also recorded: both urine biomarkers were remarkably elevated”. Moreover, in data set [3] (36 mg/kg/d IV TID 7 days, 3 animals per group), the “unscheduled necropsy / euthanized due to severe nephrotoxic effects” value is on record as “One animal receiving NAB739 at 36 mg/kg/d had to be euthanized; also recorded: on Day 5 for one animal in the NAB739 group”. In addition, the “kidney histopathology findings (grade of nephro-pathological parameters)” value in data set [3] (36 mg/kg/d IV TID, H&E kidney sections, per animal(s)) is given as “marked tubular degeneration/necrosis; also recorded: marked presence of tubular casts; also recorded: moderate findings, both in two parameters”. Also, the AUC in [7] (36 mg/kg/day, AUCs, dosed at 36 mg/kg/d, day 1) turned out to be 239 µg·h/mL; in [7] (iv, 8 mg/kg, AUCs 0-8 h, after infusion of 8 mg/kg, day 1), 108 µg·h/mL; in [7] (iv, 8 mg/kg, AUCs 0-8 h, after infusion of 8 mg/kg, day 7), 137 µg·h/mL; in data set [7] (iv, 36 mg/kg/day, AUCs, dosed at 36 mg/kg/d, day 7) it was 302 µg·h/mL. In data set [7] (female, iv, 36 mg/kg/d, urinary recoveries (0-8 h urine collection), 36 mg/kg/d, day 1, each animal), this compound returned a dose excreted of 15.4%. Also, the “synergistic activity with rifampin” value in [10] is on record as “lacked any notable synergistic activity with rifampin”.

On to `CO[C@H]1/C=C/O[C@@]2(C)Oc3c(C)c(O)c4c(O)c(c(/C=N/N5CCN(C)CC5)c(O)c4c3C2=O)NC(=O)/C(C)=C\C=C\[C@H](C)[C@H](O)[C@@H](C)[C@@H](O)[C@@H](C)[C@H](OC(C)=O)[C@@H]1C` [rifampin], for which the MIC came out at 64 µg/mL (≈ 77.8 µM) in data set [12]; 4 µg/mL (≈ 4.86 µM) in data set [13]; 16 µg/mL (≈ 19.4 µM) in [14]; 8 µg/mL (≈ 9.72 µM) in [15]; 4 µg/mL (≈ 4.86 µM) in data set [16]; 4 µg/mL (≈ 4.86 µM) in data set [17]. Also, the MIC in [18] worked out at 32 µg/mL; in data set [19], 32 µg/mL (≈ 38.9 µM); in data set [20], 8 µg/mL (≈ 9.72 µM); in data set [21] it was 8 µg/mL (≈ 9.72 µM); in data set [22], 16 µg/mL (≈ 19.4 µM).
